Measured values taken from PubChem BioAssay (NCI).
Several values for one entry are separate records, joined by “and”; a condition that tells them apart may be missing. Identical values can stand only once.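 Assay format: 96-well plates, 48-hour exposure. GI50 is the concentration that inhibits growth by half. TGI marks complete inhibition of growth.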

What was measured:
Assay in all cases: DTP human tumour cell line panel, 48 h
[1] = test system: HS 578T breast
[2] = test system: IGROV1 ovarian
[3] = test system: SR leukemia
[4] = test system: OVCAR-8 ovarian
[5] = test system: RXF 393 renal
[6] = test system: COLO 205 colon
[7] = test system: A549 NSCLC
[8] = test system: ACHN renal
[9] = test system: HCT-116 colon
[10] = test system: UO-31 renal

Row | SMILES | GI50 [1] | TGI [1] | GI50 [2] | TGI [2] | GI50 [3] | TGI [3] | GI50 [4] | TGI [4] | GI50 [5] | TGI [5] | GI50 [6] | TGI [6] | GI50 [7] | TGI [7] | GI50 [8] | TGI [8] | GI50 [9] | TGI [9] | GI50 [10] | TGI [10]
1 | Oc1cccc(-c2nc(-c3ccccc3)[nH]c2-c2ccncc2)c1 | 10.2 µM | > 25 µM | 10.4 µM | > 25 µM | 11.3 µM | > 25 µM | > 25 µM | > 25 µM | 5 µM | 14.7 µM | 4.88 µM | 12.2 µM | 14.6 µM | > 25 µM | 9.08 µM | > 25 µM | 9.91 µM | > 25 µM | 10.1 µM | > 25 µM
2 | CCN1C(=O)N(CC)C2C1NN=c1s/c(=C\c3ccc(OC)cc3)c(=O)n12 (stereo unspecified) | 0.219 µM | > 100 µM | 0.295 µM | > 100 µM | 0.0444 µM | – | 0.369 µM | – | 0.0789 µM | 47 µM | 0.192 µM | 0.616 µM | 0.247 µM | > 100 µM | 0.165 µM | > 100 µM | 0.188 µM | > 100 µM | 0.653 µM | > 100 µM
3 | O=C1NC(=O)C(c2c[nH]c3ccccc23)=C1c1ccccc1 | > 25 µM | > 25 µM | > 25 µM | > 25 µM | > 25 µM | > 25 µM | > 25 µM | > 25 µM | > 25 µM | > 25 µM | > 25 µM | > 25 µM | > 25 µM | > 25 µM | > 25 µM | > 25 µM | > 25 µM | > 25 µM | > 24 µM | > 25 µM
4 | COc1cc(NC(=O)c2ccccc2Nc2ccnc(C(F)(F)F)c2)cc(OC)c1OC | 58.8 µM | > 100 µM | 35.1 µM | 89.7 µM | 47.3 µM | > 100 µM | 69.6 µM | > 100 µM | > 100 µM | > 100 µM | 41.9 µM | > 100 µM | 58.1 µM | > 100 µM | 99.9 µM | > 100 µM | 49.6 µM | > 100 µM | 19.8 µM | 92.1 µM
5 | Cc1cn2c(/C=C3/C(=O)Nc4ccc(Cl)cc43)c(C)nc2s1 | 0.222 µM | 0.852 µM | 2.5 µM | 99.4 µM | – | > 100 µM | 2.75 µM | 32.7 µM | 6.74 µM | > 100 µM | – | – | 1.05 µM | > 49.1 µM | 0.185 µM | 48.4 µM | < 0.0238 µM | 25.3 µM | 15.6 µM | > 100 µM
6 | CC12CC(=O)C3C(CCC4=CC(=O)CCC43C)C1CC=C2CC(=O)O (stereo unspecified) | – | > 100 µM | – | > 100 µM | – | > 100 µM | – | > 100 µM | – | > 100 µM | – | > 100 µM | – | > 100 µM | – | > 100 µM | – | > 100 µM | – | > 100 µM
7 | COC(=O)c1ccc2c(C(=Nc3ccc(N(C)C(=O)CN4CCN(C)CC4)cc3)c3ccccc3)c(O)[nH]c2c1 | 0.546 µM and 0.648 µM | – | 0.839 µM and 0.967 µM | 22.5 µM and > 100 µM | 2.5 µM | > 44.7 µM | 2.31 µM and 2.43 µM | 27.6 µM and > 100 µM | 0.683 µM and 0.572 µM | 2.47 µM and 2.9 µM | 4.32 µM and 4.41 µM | 46.4 µM | 2.74 µM and 2.79 µM | > 100 µM | 1.58 µM and 2.51 µM | – | 1.58 µM and 1.48 µM | 3.06 µM and 2.97 µM | 1.2 µM and 0.739 µM | 5.76 µM and > 34 µM
8 | N#Cc1ccc(/C=C/C(=O)c2ccccc2)cc1 | 18.3 µM and 2.13 µM | 50.9 µM and 5.64 µM | 4.18 µM and 2.27 µM | 14.6 µM and 5.58 µM | 1.88 µM and 1.52 µM | 6.11 µM | 9.07 µM and 11.2 µM | 22.2 µM and 27.5 µM | 7.15 µM and 5.93 µM | 19.3 µM and 18.2 µM | 6.34 µM and 14.3 µM | 16.3 µM and 27.9 µM | 14.8 µM and 15.4 µM | 27.9 µM and 31.8 µM | 12.3 µM and 16.2 µM | 24.8 µM and 29.8 µM | 1.51 µM and 1.72 µM | 3.17 µM | 2.8 µM and 11.5 µM | 7.98 µM and 23.9 µM
9 | CNCCN(C)Cc1cn[nH]c1-c1ccc(OC2CC(OCCC3CCOCC3)C2)cc1 (stereo unspecified) | 63.1 µM | > 100 µM | 48.5 µM | > 100 µM | 25.9 µM | > 100 µM | > 100 µM | > 100 µM | 48.5 µM | > 100 µM | 21.2 µM | 85.7 µM | > 100 µM | > 100 µM | 64.6 µM | > 100 µM | > 67.9 µM | > 100 µM | 28 µM | > 100 µM
10 | CCc1ccc([O-])c(C=NCCCN(C)CCCN=Cc2cc(C)ccc2[O-])c1.[Co+3].[N-]=[N+]=[N-] | 13.8 mg/L | 50 mg/L | 20.5 mg/L and 24.6 mg/L | 50 mg/L and 55.5 mg/L | 36.4 mg/L | 50 mg/L | 31.9 mg/L and 49.1 mg/L | 50 mg/L and > 150 mg/L | 5.76 mg/L and 20.4 mg/L | 35.5 mg/L and 46 mg/L | 50 mg/L and > 150 mg/L | 50 mg/L and > 150 mg/L | 50 mg/L and 106 mg/L | 50 mg/L and > 150 mg/L | 50 mg/L | 50 mg/L | 50 mg/L and 56.2 mg/L | 50 mg/L and > 150 mg/L | 50 mg/L and 84.2 mg/L | 50 mg/L and > 150 mg/L
11 | Fc1ccc(C2C3CCOc4c(ccc5ccccc45)C3=NN2c2ccccc2)cc1 (stereo unspecified) | > 88.6 µM | > 100 µM | > 100 µM | > 100 µM | 13.3 µM | > 100 µM | > 60.2 µM | > 100 µM | > 63.6 µM | > 100 µM | > 100 µM | > 100 µM | 48.9 µM | > 100 µM | 88.6 µM | > 100 µM | > 86.2 µM | > 100 µM | > 100 µM | > 100 µM
12 | COC(=O)C1(C)CCCC2(C)c3cc(OC)ccc3C(=O)C(Br)C12 (stereo unspecified) | – | > 10 µM | – | > 10 µM | – | > 10 µM | – | 4.54 µM | – | > 10 µM | – | 7.29 µM | – | > 10 µM | – | – | – | 7.23 µM | – | 3.28 µM
13 | N=C1/C(=C2\Nc3ccccc3S2)CC(=O)N1c1ccc(SC(F)F)cc1 | 2.17 µM | 29.2 µM | 5.07 µM | > 100 µM | 2.21 µM | > 100 µM | 7.42 µM | > 100 µM | 2.81 µM | 25.7 µM | 11.2 µM | > 100 µM | 3.75 µM | > 100 µM | 6.98 µM | > 100 µM | 8.89 µM | > 100 µM | 7.38 µM | > 100 µM
14 | c1cc2c(c(NC3=NCCN3)c1)CCCC2 | – | > 100 µM | – | > 100 µM | – | > 100 µM | – | > 100 µM | – | > 100 µM | – | > 100 µM | – | > 100 µM | – | > 100 µM | – | > 100 µM | – | –
